# Test results taken from paper PMC5324060, “Evolutionary, computational, and biochemical studies of the salicylaldehyde dehydrogenases in the naphthalene degradation pathway” (Scientific Reports, 2017).
# What was measured:
# Format in all cases: biochemical
# SALDan = SALDan (Alteromonas naphthalenivorans, UniProt F5Z5S7); assay: Kinetics assay of wild-type recombinant SALDan (NADH appearance at 340 nm)
# Experimental: (§1) The activity of the purified proteins was determined using SAL as a substrate. A reaction volume of 500 μL was prepared in a microfuge tube containing purified SALDan (0.1 μM), SAL (100 μM), and NAD^+ (100 μM) dissolved in 50 mM HEPES (pH 7.5) containing 150 mM NaCl. The SALDan activity was monitored as the rate of appearance of NADH at 340 nm spectrophotometrically. The specific activity of the enzyme (units.mg^−1.min^−1) was expressed as the amount of enzyme required to produce 1 μM of NADH under the assay conditions. The influence of pH on the activity was determined using the protocol described above, with the exception of replacing the […] buffer with 50 mM sodium acetate (pH 3.0–5.0), 50 mM 2-(N-morpholino)ethanesulfonic acid (pH 5.0–7.5), 50 mM HEPES (pH 8.0–8.5), 50 mM glycine (pH 9.0–10.0), or 50 mM sodium phosphate (pH 11.0)[52]. All assays were performed at the optimal temperature. To determine the influence of temperature on the enzymatic activity, the reactions were performed at 15, 20, 25, 30, 35, 40, and 45 °C, respectively.
# (§2) For kinetic studies of aldehydes, the initial velocities of the enzymatic reactions were examined by varying the concentrations of various aromatic as well as aliphatic aldehydes in the presence of NAD^+ (100 μM) and the enzyme (0.1 μM) under optimal conditions. For substrates that absorb at 340 nm, thus interfering with the calculation of the initial rate, their molar coefficients (ε) were calculated as described previously[64] and are presented in Table S1. The apparent kinetic parameters were calculated using the equation: […]
# (§3) The apparent kinetic parameters for NAD^+ were determined at a fixed concentration of SAL (50 μM) and a varying concentration of NAD^+ (0–500 μM). The apparent Km and Vmax values were calculated by using the equation: […]
# (§4) All the activity data were determined by three separate experiments with at least three technical replicates.
# SALDan N149A = biological target: T1, SALDan N149A (Alteromonas naphthalenivorans, UniProt F5Z5S7, N149A); assay: Kinetics assay of SALDan mutant N149A
# T1 sequence (F5Z5S7 1-483 N149A): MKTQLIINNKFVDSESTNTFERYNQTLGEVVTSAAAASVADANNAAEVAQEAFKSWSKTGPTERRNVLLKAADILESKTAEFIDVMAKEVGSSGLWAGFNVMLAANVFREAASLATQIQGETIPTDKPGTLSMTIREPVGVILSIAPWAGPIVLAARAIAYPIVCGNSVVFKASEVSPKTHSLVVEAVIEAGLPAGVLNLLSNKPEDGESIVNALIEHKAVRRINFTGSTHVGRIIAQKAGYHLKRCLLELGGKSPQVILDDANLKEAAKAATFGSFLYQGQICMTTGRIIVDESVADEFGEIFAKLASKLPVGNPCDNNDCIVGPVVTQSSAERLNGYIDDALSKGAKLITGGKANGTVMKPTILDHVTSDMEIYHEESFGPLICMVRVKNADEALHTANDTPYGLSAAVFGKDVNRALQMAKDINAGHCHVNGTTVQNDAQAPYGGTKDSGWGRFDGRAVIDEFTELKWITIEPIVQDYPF
# From the text: The primers used for the single amino acid mutant were as follows: N149A, forward primer, 5′-ATAGCACCGTGGGCCGGGCCTATTGTATTA-3′; reverse primer, 5′-TAATACAATAGGCCCGGCCCACGGTGCTAT-3′; V153A, forward primer, 5′-AATGGGCCTATTGTATTAGCGGCTCGG-3′; reverse primer, 5′-CCGAGCCGCTAATACAATAGGCCCATT-3′; E175A, forward primer, 5′-[…]-3′, reverse primer, 5′-GTTGGGACAGTCTTCCAGCCC-3′; E175A, forward primer, 5′-ATGCTCCACCAAATTGGGCAC-3′; reverse primer, 5′-TTTAGGACTTACTTCTGAAGCTTTAAA-3′. The PCR was performed using Pfu polymerase, and the cycling parameters were: 95 °C for 5 min (one cycle), 95 °C for 30 s, and 68 °C for 12 min (12 cycles). […]
# (§5) The activity of the purified proteins was determined using SAL as a substrate. […] The SALDan activity was monitored as the rate of appearance of NADH at 340 nm spectrophotometrically. The specific activity of the enzyme (units.mg^−1.min^−1) was expressed as the amount of enzyme required to produce 1 μM of NADH under the assay conditions. The influence of pH on the activity was determined using the protocol described above, with the exception of replacing the Tris-HCl buffer with 50 mM sodium acetate (pH 3.0–5.0), 50 mM 2-(N-morpholino)ethanesulfonic acid (pH 5.0–7.5), 50 mM HEPES (pH 8.0–8.5), 50 mM glycine (pH 9.0–10.0), or 50 mM sodium phosphate (pH 11.0)[52]. […]
# SALDan V153A = biological target: T2, SALDan V153A (Alteromonas naphthalenivorans, UniProt F5Z5S7, V153A); assay: Kinetics assay of SALDan mutant V153A
# T2 sequence (F5Z5S7 1-483 V153A): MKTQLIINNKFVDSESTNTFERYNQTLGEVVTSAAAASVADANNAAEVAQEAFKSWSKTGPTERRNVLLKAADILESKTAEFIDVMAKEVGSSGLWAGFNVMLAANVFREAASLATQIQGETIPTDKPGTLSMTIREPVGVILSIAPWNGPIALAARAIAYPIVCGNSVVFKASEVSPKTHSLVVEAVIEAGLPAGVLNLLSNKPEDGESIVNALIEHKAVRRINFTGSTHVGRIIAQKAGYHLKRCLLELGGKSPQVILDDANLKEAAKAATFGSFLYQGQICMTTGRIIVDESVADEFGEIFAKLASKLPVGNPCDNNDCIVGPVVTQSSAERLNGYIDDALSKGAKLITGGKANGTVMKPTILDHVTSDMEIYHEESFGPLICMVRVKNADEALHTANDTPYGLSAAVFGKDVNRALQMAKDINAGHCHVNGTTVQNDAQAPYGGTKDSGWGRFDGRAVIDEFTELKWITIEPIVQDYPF
# From the text: (§6) The primers used for the single amino acid mutant were as follows: N149A, forward primer, 5′-ATAGCACCGTGGGCCGGGCCTATTGTATTA-3′; reverse primer, 5′-TAATACAATAGGCCCGGCCCACGGTGCTAT-3′; V153A, forward primer, 5′-AATGGGCCTATTGTATTAGCGGCTCGG-3′; reverse primer, 5′-CCGAGCCGCTAATACAATAGGCCCATT-3′; E175A, forward primer, 5′-[…]-3′, reverse primer, 5′-GTTGGGACAGTCTTCCAGCCC-3′; E175A, forward primer, 5′-ATGCTCCACCAAATTGGGCAC-3′; reverse primer, 5′-TTTAGGACTTACTTCTGAAGCTTTAAA-3′. The PCR was performed using Pfu polymerase, and the cycling parameters were: 95 °C for 5 min (one cycle), 95 °C for 30 s, and 68 °C for 12 min (12 cycles). After amplification, the PCR mixture was digested with DpnI and then transformed into E. coli BL21(DE3) by electroporation. The mutants were confirmed by DNA sequencing.
# as §5, §2
# SALDan E175A = biological target: T3, SALDan E175A (Alteromonas naphthalenivorans, UniProt F5Z5S7, E175A); assay: Kinetics assay of SALDan mutant E175A
# T3 sequence (F5Z5S7 1-483 E175A): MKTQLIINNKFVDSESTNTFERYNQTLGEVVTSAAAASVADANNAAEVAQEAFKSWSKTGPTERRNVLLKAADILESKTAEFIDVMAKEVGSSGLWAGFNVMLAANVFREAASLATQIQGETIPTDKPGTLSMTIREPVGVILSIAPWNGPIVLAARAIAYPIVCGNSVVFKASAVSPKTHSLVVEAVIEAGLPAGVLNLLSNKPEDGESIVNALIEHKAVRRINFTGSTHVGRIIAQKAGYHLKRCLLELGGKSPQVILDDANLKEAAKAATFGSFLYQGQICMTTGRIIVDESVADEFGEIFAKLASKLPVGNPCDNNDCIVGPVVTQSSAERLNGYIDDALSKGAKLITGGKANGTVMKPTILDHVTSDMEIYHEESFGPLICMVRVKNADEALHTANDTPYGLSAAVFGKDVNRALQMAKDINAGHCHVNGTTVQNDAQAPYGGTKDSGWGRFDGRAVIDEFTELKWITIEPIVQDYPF
# From the text: as §6, §1, §2, §3, §4
# Chain of SALDan (F5Z5S7 entry or part of it): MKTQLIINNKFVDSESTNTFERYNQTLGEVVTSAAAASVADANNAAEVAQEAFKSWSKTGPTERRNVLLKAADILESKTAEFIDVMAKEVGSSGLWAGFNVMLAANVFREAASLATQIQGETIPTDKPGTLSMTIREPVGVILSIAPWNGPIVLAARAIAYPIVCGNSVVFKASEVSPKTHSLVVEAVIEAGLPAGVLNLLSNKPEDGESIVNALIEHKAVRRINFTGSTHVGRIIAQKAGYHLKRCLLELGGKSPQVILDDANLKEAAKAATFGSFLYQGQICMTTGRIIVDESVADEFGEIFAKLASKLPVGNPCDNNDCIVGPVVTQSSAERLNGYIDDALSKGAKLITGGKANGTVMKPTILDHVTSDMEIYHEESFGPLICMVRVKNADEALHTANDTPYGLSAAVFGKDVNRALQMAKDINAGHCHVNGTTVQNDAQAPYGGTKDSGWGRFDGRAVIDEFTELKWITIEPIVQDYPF
structure (smiles),measurement,setting,value
O=Cc1ccccc1O [Salicylaldehyde],Ki,SALDan,379 ± 45.2 µM
same,activity relative to the maximal velocity,"SALDan; wild-type, assayed at 200 μM substrate, substrate inhibition",approximately 80%
same,substrate concentration at which the highest velocity is achieved,"SALDan; wild-type, velocity versus substrate plot",40 µM
same,Ki,SALDan N149A,447 ± 52.6 µM
same,change of catalytic efficiency compared with the wild-type protein,SALDan N149A; N149A mutant,decreased by about three times
same,Ki,SALDan V153A,428 ± 49.4 µM
same,effect on the kinetic parameters,SALDan V153A; V153A mutant versus wild-type,no significant effect
same,Ki,SALDan E175A,462 ± 51.4 µM
same,change of apparent Km value,SALDan E175A; E175A mutant versus wild-type,increased
same,change of kcat/Km (catalytic efficiency),SALDan E175A; E175A mutant versus wild-type,decreased by six times
